Data from US10772885B2, “Composition for treating ocular diseases and methods of usage and making” (REYOUNG (SUZHOU) BIOLOGY SCIENCE & TECHNOLOGY CO., LTD., priority 2016, dated 2020).

System: CNV
Assay: Laser photocoagulation-induced CNV in rats (FP/FFA, fluorescein leakage grading)
Assay type: in vivo, Brown Norway (BN) rats
Details: for Mean fluorescein leakage score vs model group / Ratio of grade 3 light spots vs model group: after treatment
Experimental: Specific-pathogen-free (SPF) grade Brown Norway (BN) rats, half male and half female, were treated with fundus laser photocoagulation, the date of which was counted as D0. At D8, 32 rats with similar areas of fluorescence leakage were selected, separated to 8 groups, with each group including 4 rats (half male and half female): • Group 1 is a model group without any treatment. • Group 2 is a positive control group, in which Conbercept was injected into the vitreous cavity of the rats' eyes at the dosage of 50 μg/eye and […]. • In group 3, both eyes of the rats were administered with nintedanib ethanesulfonate at the dosage of 125 μg/eye and 6 times per day from day 8 and day 15 (D8˜D15). • In group 4, both eyes of the rats were administered with nintedanib ethanesulfonate at the dosage of 25 μg/eye and 6 times per day from day 8 and day 15 (D8˜D15). • In group 5, both eyes of the rats were administered with nintedanib ethanesulfonate at the dosage of 5 μg/eye and 6 times per day from day 8 and day 15 (D8˜D15). • In group 6, both eyes of the rats were administered with nintedanib ethanesulfonate at the dosage of 2.5 μg/eye and 6 times per day from day 8 and day 15 (D8˜D15). • In group 7, both eyes of the rats were administered with nintedanib ethanesulfonate at the dosage of 0.5 μg/eye and 6 times per day from day 8 and day 15 (D8 D15). • In […], both eyes of the rats were administered with nintedanib ethanesulfonate at the dosage of 0.1 μg/eye and 6 times per day from day 8 and day 15 (D8 D15).
All rats were tested with fundus photography (“FP”) and fundus fluorescein angiography (“FFA”) one day before administration and 8 days after administration. The degree of CNV was graded according to the degree of fluorescence leakage. The results were used to evaluate the effect of nintedanib ethanesulfonate on rat CNV, the results of which are shown in FIG. 2.
The ratio is calculate by comparing the early-phase and last-phase fluorescein angiograms. The fluorescence leakage of the light spots was graded as follows: grade 0 (no leakage); grade 1 (slight leakage, leakage area is 1%-50% of the light spot size); grade 2 (moderate leakage, leakage area is 50%-100% of the light spot size); grade 3 (strong leakage, leakage area is larger than the light spot size). The ratios of light spots for certain grade were calculated as follows: Ratio of light spot (%)=(the number of light spot at certain grade÷the sum of four kinds of light spots)×100.
The mean fluorescein leakage score is calculated as follows: Mean fluorescein leakage score=[(number of grade 0 light spot×0)+(number of grade 1 light spot×1)+(number of grade 2 light spot×2)+(number of grade 3 light spot×3)]÷the sum of four kinds of light spots

[1] = groups 3-6 (125, 25, 5, 2.5 μg/eye)
[2] = positive control group, 50 μg/eye into the vitreous cavity

Molecule | Ratio of grade 1 light spots vs positive control group (all groups) | Ratios of light spots, mean fluorescein leakage score and development of CNV (eye drops at 125, 25, 5, 2.5, 0.5 μg/eye) | Ratio of grade 1 light spots vs positive control group (fifth group (5 μg/eye), p≤0.05) | Leakage vs positive control group (group 5 (5 μg/eye), p≤0.05) | Ratio of grade 3 light spots vs positive control group [1] | Mean fluorescein leakage score vs model group [1] | Ratio of grade 3 light spots vs model group [1] | Ratio of grade 1 light spots vs model group (groups 3-6 (125, 25, 5, 2.5 μg/eye), p≤0.05) | Adverse reactions (groups 3 and 4 (125 and 25 μg/eye, 6 times per day, D8-D15), some of the animals) | Inhibition of CNV in rats (groups 4-6 (25, 5, 2.5 μg/eye), 1 week after photocoagulation) | Mean fluorescein leakage score (groups 7 and 8 (0.5 and 0.1 μg/eye)) | Adverse reactions (other groups (5, 2.5, 0.5, 0.1 μg/eye, 6 times per day, D8-D15)) | Ratio of the level 0 and level 2 light spot vs positive control group (other groups, p>0.05) | Inhibition of leakage vs positive control group (printed: first group) | Leakage caused by CNV (rat, in vivo) | Mean fluorescein leakage score vs model group [2] | Ratio of grade 3 light spots vs model group [2]
COC(=O)c1ccc2c(c1)NC(=O)/C2=C(\Nc1ccc(N(C)C(=O)CN2CCN(C)CC2)cc1)c1ccccc1 [nintedanib ethanesulfonate] | increased | can inhibit | significantly increased | significantly decreased | lower | significantly decreased | significantly decreased | increased | corneal opacity | significantly inhibited the CNV | no statistically significant difference | did not experience any significantly adverse reactions | no significant difference | slightly stronger | can inhibit the leakage caused by CNV |  | 
Conbercept: Monoclonal antibody or fusion protein targeting VEGF, developed by a Chinese company and launched in 2013; positive control |  |  |  |  |  |  |  |  |  |  |  |  |  |  |  | significantly decreased | significantly decreased
